A word on the IC50: it is the concentration that inhibits the measured activity by half.

Where two headings read alike, the source gives them in different places.

One assay addresses T1, human topoIIα (Homo sapiens, UniProt P11388).
T1 construct: purchased Inspiralis
As to the kind of experiment: topoII decatenation assay (Inspiralis). The assay is classed as biochemical. The procedure: We measured the inhibitor activity of our new compounds against human topoIIα, using a topoII decatenation assay (Table 1).
The activity of topoIIα was measured using a decatenation assay (Inspiralis) following the manufacturer’s instructions. Compounds were dissolved in DMSO and used at a concentration ranging from 200 to 1 μM. Final DMSO concentration in the assay was ≤1%. Reaction mixtures were incubated for 30 min at 37 °C and terminated with STEB buffer (40% (w/v) sucrose, 100 mM Tris-HCl, pH 8, 1 mM EDTA, 0.5 mg/mL bromophenol blue). Reaction products were resolved by electrophoresis in 1% agarose gels containing SYBR Safe DNA stain (Invitrogen), scanned, and quantified using the ChemiDoc system (BioRad). IC50 values were obtained with GraphPad Prism software (version 5.03) using the band intensities of the dose–response gels. Values are reported as the mean ± SD of two independent experiments.

In the next assay the test system is A549 cells. The assay can be described thus: cell viability MTT assay, A549. It counts as cell-based, human. As to conditions: Homo sapiens, A549, A549 lung adenocarcinoma cells, mean ± SD of two experiments, read-out: A549 antiproliferative activity IC50. The procedure:
(§1) The antiproliferative activity of all compounds was evaluated in (i) DU145, an androgen-independent prostate cancer cell line; (ii) HeLa, a cervical cancer cell line; and (iii) A549, a lung adenocarcinoma cell line (Table 1). […] Undoubtedly, this preliminary cytotoxicity data will need further characterization, also in relation to the in vitro activity of these compounds.
(§2) Human cancer cell lines A549 (lung adenocarcinoma, ATCC CCL-185), DU-145 (androgen-independent prostate cancer, ATCC HTB-81), and HeLa (cervical carcinoma, ATCC CCL-2) were obtained from ATCC. Cells were routinely grown in minimal essential medium containing Eagle’s salts and L-glutamine supplemented with 10% heat-inactivated FBS in a humidified atmosphere of 5% CO2 at 37 °C. To assess the antiproliferative activity of the compounds, cells were seeded at a density of 2500 cells/well (HeLa) or 5000 cells/well (A549, DU-145) in 96-well plates, and cell viability was measured using the MTT assay as described previously.[39] Values are reported as the mean ± SD of two independent experiments.
(Formazan colour is commonly taken as a measure of viable cells.)

In another assay the test system is HeLa cells. The assay can be described thus: cell viability MTT assay, HeLa. It counts as cell-based, human. As to conditions: Homo sapiens, HeLa, HeLa cervical cancer cells, mean ± SD of two experiments, read-out: HeLa antiproliferative activity IC50. The procedure:
as §1, §2

The subject of another assay is DU145 cells. As to the kind of experiment: cell viability MTT assay, DU145. It counts as cell-based, human. The following applies: Homo sapiens, DU-145, DU145 prostate cancer cells, mean ± SD of two experiments, read-out: DU145 antiproliferative activity IC50. The procedure:
as §1, §2

The mark [1] stands for this setting: human topoIIα decatenation assay, mean ± SD of two independent experiments, read-out: IC50.
Setting [2] is: topoIIα decatenation IC50 versus ARN16267.

T1 sequence (P11388 whole entry): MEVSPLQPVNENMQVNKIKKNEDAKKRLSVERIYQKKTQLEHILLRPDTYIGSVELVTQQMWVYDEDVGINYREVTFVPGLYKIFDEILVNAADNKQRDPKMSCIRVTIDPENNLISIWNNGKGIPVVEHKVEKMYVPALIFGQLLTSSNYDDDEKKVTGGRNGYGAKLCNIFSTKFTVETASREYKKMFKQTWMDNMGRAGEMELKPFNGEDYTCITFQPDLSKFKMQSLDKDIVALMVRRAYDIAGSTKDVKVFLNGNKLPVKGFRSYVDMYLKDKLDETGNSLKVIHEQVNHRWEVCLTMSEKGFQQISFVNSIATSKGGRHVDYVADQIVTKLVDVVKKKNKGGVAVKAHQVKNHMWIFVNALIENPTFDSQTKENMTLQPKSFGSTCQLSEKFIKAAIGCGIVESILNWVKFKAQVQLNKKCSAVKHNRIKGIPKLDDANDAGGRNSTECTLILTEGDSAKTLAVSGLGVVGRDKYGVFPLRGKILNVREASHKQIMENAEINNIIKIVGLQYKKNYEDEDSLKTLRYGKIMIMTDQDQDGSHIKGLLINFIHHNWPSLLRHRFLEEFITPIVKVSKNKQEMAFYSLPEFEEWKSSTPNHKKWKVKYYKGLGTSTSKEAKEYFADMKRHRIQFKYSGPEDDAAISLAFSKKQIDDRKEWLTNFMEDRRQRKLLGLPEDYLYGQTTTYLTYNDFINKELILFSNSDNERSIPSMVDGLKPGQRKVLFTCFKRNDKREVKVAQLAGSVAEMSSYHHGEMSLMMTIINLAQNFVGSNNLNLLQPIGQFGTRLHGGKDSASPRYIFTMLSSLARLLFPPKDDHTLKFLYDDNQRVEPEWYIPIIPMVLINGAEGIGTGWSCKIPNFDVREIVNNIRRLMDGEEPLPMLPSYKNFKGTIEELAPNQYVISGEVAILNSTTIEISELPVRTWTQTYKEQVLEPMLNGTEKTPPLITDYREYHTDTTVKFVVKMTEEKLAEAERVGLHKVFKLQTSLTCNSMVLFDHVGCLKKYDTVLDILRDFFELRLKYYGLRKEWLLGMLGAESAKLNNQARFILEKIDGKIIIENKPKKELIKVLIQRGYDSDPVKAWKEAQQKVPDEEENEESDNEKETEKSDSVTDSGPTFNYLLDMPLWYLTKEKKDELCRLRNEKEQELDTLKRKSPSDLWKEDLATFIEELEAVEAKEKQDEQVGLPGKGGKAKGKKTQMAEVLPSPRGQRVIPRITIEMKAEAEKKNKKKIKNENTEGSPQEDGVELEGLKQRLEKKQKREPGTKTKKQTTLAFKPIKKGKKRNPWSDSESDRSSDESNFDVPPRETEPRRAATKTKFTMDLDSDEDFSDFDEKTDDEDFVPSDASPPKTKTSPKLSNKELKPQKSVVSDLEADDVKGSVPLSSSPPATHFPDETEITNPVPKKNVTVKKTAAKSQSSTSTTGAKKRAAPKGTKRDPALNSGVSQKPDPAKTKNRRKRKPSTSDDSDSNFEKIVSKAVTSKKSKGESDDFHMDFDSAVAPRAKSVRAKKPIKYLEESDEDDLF

In the case of `CCOc1cccc(NC(=O)c2c(O)n(-c3ccccc3)c(=S)n(-c3ccccc3)c2=O)c1` [3a, N-(3-Ethoxyphenyl)-6-hydroxy-4-oxo-1,3-diphenyl-2-thioxo-1,2,3,4-tetrahydropyrimidine-5-carboxamide], the IC50 stood at 12.4 ± 3.7 µM on human topoIIα (setting [1]), 3.6 ± 0.4 µM in the assay with A549 cells, 5.2 ± 0.9 µM in the assay with HeLa cells and 5.7 ± 1.4 µM in the assay with DU145 cells.

Turning to `N#Cc1cccc(NC(=O)c2c(O)n(-c3ccccc3)c(=S)n(-c3ccccc3)c2=O)c1` [3c, N-(3-Cyanophenyl)-6-hydroxy-4-oxo-1,3-diphenyl-2-thioxo-1,2,3,4-tetrahydropyrimidine-5-carboxamide], the IC50 was found to be 14.4 ± 3.8 µM on human topoIIα (setting [1]), 16.9 ± 0.3 µM in the assay on A549 cells, 12.4 ± 1.3 µM in the assay on HeLa cells and 14.4 ± 4.1 µM with DU145 cells.

In the case of `O=C(Nc1cccc([N+](=O)[O-])c1)c1c(O)n(-c2ccccc2)c(=S)n(-c2ccccc2)c1=O` [3d, 6-Hydroxy-N-(3-nitrophenyl)-4-oxo-1,3-diphenyl-2-thioxo-1,2,3,4-tetrahydropyrimidine-5-carboxamide], the IC50 on human topoIIα (setting [1]) stood at 10.2 ± 4.6 µM; in the assay on A549 cells, 18.5 ± 3.1 µM; in the assay on HeLa cells it was 11.9 ± 2.6 µM; with DU145 cells it was 6.9 ± 0.3 µM.

On to `O=C(Nc1cccc(F)c1)c1c(O)n(-c2ccccc2)c(=S)n(-c2ccccc2)c1=O` [3e, N-(3-Fluorophenyl)-6-hydroxy-4-oxo-1,3-diphenyl-2-thioxo-1,2,3,4-tetrahydropyrimidine-5-carboxamide], for which the IC50 on human topoIIα (setting [1]) is 15.1 ± 4.2 µM; in the assay with A549 cells it was 4.1 ± 0.2 µM; in the assay with HeLa cells, 5.6 ± 0.5 µM; in the assay on DU145 cells, 5.6 ± 0.6 µM.

For the molecule `COc1cc(NC(=O)c2c(O)n(-c3ccccc3)c(=S)n(-c3ccccc3)c2=O)ccc1F` [3j], the IC50 was determined as 22.5 ± 5.8 µM on human topoIIα (setting [1]), 4.6 ± 0.1 µM in the assay on A549 cells, 5.3 ± 1 µM in the assay with HeLa cells and 7.8 ± 0.6 µM in the assay with DU145 cells.

`COc1cccc(CNC(=O)c2c(O)n(-c3ccccc3)c(=S)n(-c3ccccc3)c2=O)c1` [5d, 6-Hydroxy-N-(3-methoxybenzyl)-4-oxo-1,3-diphenyl-2-thioxo-1,2,3,4-tetrahydropyrimidine-5-carboxamide]: the IC50 on human topoIIα (setting [1]) turned out to be 22.5 ± 7.2 µM; in the assay with A549 cells, 4.8 ± 0.4 µM; with HeLa cells, 6.1 ± 1.1 µM; in the assay on DU145 cells, 7.7 ± 0.1 µM. The “fold drop in activity compared to ARN16267” value on human topoIIα (setting [2]) is on record as 1.4 fold.

For the molecule `COc1cccc(/C=C/CNC(=O)c2c(O)n(-c3ccccc3)c(=S)n(-c3ccccc3)c2=O)c1` [5f, (E)-6-Hydroxy-N-(3-(3-methoxyphenyl)allyl)-4-oxo-1,3-diphenyl-2-thioxo-1,2,3,4-tetrahydropyrimidine-5-carboxamide], the IC50 came out at 8.3 ± 2.3 µM at human topoIIα (setting [1]), 4.4 ± 0.6 µM with A549 cells, 5.5 ± 1.1 µM in the assay on HeLa cells and 5 ± 2.9 µM in the assay on DU145 cells. Further, the “fold increased activity compared to ARN16267” value at human topoIIα (setting [2]) was 2 fold.

With `COc1cc(CNC(=O)c2c(O)n(-c3ccccc3)c(=S)n(-c3ccccc3)c2=O)cc(OC)c1O` [compound 6, 6-Hydroxy-N-(4-hydroxy-3,5-dimethoxybenzyl)-4-oxo-1,3-diphenyl-2-thioxo-1,2,3,4-tetrahydropyrimidine-5-carboxamide], the IC50 on human topoIIα was greater than 100 µM; on human topoIIα (setting [1]), 108 ± 10.1 µM; in the assay on A549 cells, 14.7 ± 0.3 µM; in the assay on HeLa cells it was 19.1 ± 4.8 µM; in the assay with DU145 cells it was 8.8 ± 0.3 µM. Further, the “fold drop in activity compared to ARN16267” value on human topoIIα (setting [2]) was 7 fold.

With `COc1cc(CCNC(=O)c2c(O)n(-c3ccccc3)c(=S)n(-c3ccccc3)c2=O)cc(OC)c1O` [compound 7, 6-Hydroxy-N-(4-hydroxy-3,5-dimethoxyphenethyl)-4-oxo-1,3-diphenyl-2-thioxo-1,2,3,4-tetrahydropyrimidine-5-carboxamide], the IC50 at human topoIIα (setting [1]) turned out to be 74.4 ± 13.6 µM; in the assay on A549 cells it was 14.8 ± 1.4 µM; with HeLa cells it was 13.3 ± 1.7 µM; in the assay with DU145 cells, 13.9 ± 7.6 µM.

Values taken from paper PMC7997578, “Design, Synthesis, Dynamic Docking, Biochemical Characterization, and in Vivo Pharmacokinetics Studies of Novel Topoisomerase II Poisons with Promising Antiproliferative Activity” (Journal of Medicinal Chemistry, 2020).
